Measured values published in patent US10092648B2, “Selective glucagon-like-peptide-2 (GLP-2) analogues” (Zealand Pharma A/S, priority 2006, dated 2018).
Where two headings read alike, the source gives them in different places.

Legend:
[1] = tested on: male C57BL mice; experiment: In vivo stimulation of stomach growth, 200 nmol/kg (Example 12); conditions: for Sensitivity index Stomach/Co: ratio Stomach-BW / Colon-BW; for Stomach-BW, compared to 1559 in %: stomach weight relative to body weight, relative to ZP1559
Method in brief: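 Mice (n=6-10/group) received 200 nmol/kg s.c. once daily for 3 days, with PBS pH 7.4 vehicle and an equimolar GLP-2 comparator. Stomach/colon sensitivity index relative to GLP-2 was calculated, with ≥1.05 deemed stomach-selective.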

[2] = tested on: male C57BL mice; experiment: In vivo stimulation of intestinal growth, 800 nmol/kg (Example 10); set-up: key to Small intestine-colon sensitivity index: (SI/Colon) of compound divided by (SI/Colon) of reference GLP-2; conditions: 800 nmol/kg s.c. once daily for 3 days; for Sensitivity index Si/Colon / Sensitivity index Stomach/Co: relative to 1559; for Colon: colon mass relative to BW, % vs. [Gly2]GLP-2; for SI (% vs. [Gly2]GLP-2: small intestine mass relative to BW, [Gly2]GLP-2 = 100%
Description: Individual groups (n=6-10) of mice were given 800 nmol/kg of each compound, s.c, once daily for three consecutive days. For comparison purposes other groups of animals were given either an equimolar dose of [[…]]GLP-2 (ZP1559) or vehicle (phosphate buffered saline, pH 7.4) in the same dosing regimen Twenty-four hours after the last dose of compound had been given the mice were sacrificed and the small intestine (from the pylorus to the cecum) and the colon (intestine distal to cecum) was emptied and weighed. To correct for slight difference in body weight (BW), the organ mass of the small intestine (SI) and colon were expressed relative to BW. The non-selective reference compound [[…]]GLP-2 has been reported to stimulate gastrointestinal growth in both esophagus, stomach, small intestine and colon and to evaluate differences in growth pattern induced by compounds, the small intestine-colon sensitivity index of compound X was calculated as: […]

[3] = tested on: male C57BL mice; experiment: In vivo stimulation of intestinal growth, 200 nmol/kg (Example 11); conditions: for Colon-BW, compared to 1559 in %: colon weight relative to body weight; for Colon-BW, compared to 1559 in % / SI-BW, compared to 1559 in %: relative to ZP1559; for Sensitivity index Si/Co: ratio SI-BW / Colon-BW; for SI-BW, compared to 1559 in %: small intestine weight relative to body weight
Method in brief: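 Mice (n=6-10 per group) dosed s.c. at 200 nmol/kg once daily for three days; controls received equimolar [[MUT]]GLP-2 or PBS pH 7.4 vehicle.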

[4] = target: T1, hGLP-2 receptor (Homo sapiens, UniProt O95838); experiment: In vitro screening for agonism on the GLP-2 receptor recombinantly expressed in BHK-21 cells (CRE-luciferase reporter); assay type: cell-based
T1 construct: expressed in transfected cells; host or cells: BHK-21 (C13) cells, transient transfection with Lipofectamine 2000
T1 sequence (O95838 1-553): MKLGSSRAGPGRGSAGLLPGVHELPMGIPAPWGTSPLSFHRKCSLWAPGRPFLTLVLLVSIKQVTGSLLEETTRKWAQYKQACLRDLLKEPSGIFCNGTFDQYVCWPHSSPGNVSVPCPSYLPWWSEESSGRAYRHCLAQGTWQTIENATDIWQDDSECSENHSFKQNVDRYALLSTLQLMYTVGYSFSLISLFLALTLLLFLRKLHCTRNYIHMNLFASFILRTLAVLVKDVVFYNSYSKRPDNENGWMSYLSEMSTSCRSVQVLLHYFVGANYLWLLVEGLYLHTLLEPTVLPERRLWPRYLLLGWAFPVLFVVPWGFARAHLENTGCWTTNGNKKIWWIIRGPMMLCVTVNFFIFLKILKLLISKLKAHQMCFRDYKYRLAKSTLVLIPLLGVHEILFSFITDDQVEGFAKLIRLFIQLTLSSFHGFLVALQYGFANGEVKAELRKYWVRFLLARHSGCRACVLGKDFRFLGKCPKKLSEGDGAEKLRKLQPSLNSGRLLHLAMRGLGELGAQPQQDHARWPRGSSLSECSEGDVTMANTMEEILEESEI
Experimental: The screening was done using BHK21 cells transiently transfected with GLP-2 receptor and the CRE-luciferase reporter gene construct. Dose-response curves and EC50 values were determined using seven concentrations from 10 fM to 10 nM and triplicate points for each concentration. Control peptide was used on all test plates. BHK-21 cells are seeded in 10 cm TC-Petri dishes and grown to 70-80% confluency. Subsequently, medium is changed to serum-free transfection medium. DNA (7.5 μg hGLP-2 receptor vector and 7.5 μg CRE-luciferase vector) and Lipofectamine 2000 are diluted in OptiMEM, combined, and added to the cells after 20-30 min. Cells are incubated in the incubator at 37° C., 5% CO2 for 4 hr, trypsinized, and reseeded at 35,000 cells per well in 96-well plates. Cells are incubated overnight in full growth medium in order to allow expression of the transgenes. […] Baseline activity is controled with stimulation buffer alone. These solutions are pre-warmed to 37° C. for 30 min. Cells are rinsed with pre-warmed (37° C.) stimulation buffer, and incubated with 100 μl of the pre-warmed peptide dilutions and control for 5 hr at 37° C., 5% CO2. The LucLite enzyme substrate/lysis buffer is prepared shortly before the end of the incubation. 100 μl LucLite substrate are added to each well, and light emission is counted on a suitable counter (e.g. Wallac VictorII). EC50 values are derived from the raw data by fitting with a four parameter logistic equation (Microcal Origin 5.0 or GraphPad 4).

[5] = amino acid side-chain; defined by W. D. Stein 1967; cited from earlier work
[6] = target: T2, hGLP-2 receptor (human, UniProt O95838 1-553); experiment: cell-based or functional assay
T2 sequence (looked up): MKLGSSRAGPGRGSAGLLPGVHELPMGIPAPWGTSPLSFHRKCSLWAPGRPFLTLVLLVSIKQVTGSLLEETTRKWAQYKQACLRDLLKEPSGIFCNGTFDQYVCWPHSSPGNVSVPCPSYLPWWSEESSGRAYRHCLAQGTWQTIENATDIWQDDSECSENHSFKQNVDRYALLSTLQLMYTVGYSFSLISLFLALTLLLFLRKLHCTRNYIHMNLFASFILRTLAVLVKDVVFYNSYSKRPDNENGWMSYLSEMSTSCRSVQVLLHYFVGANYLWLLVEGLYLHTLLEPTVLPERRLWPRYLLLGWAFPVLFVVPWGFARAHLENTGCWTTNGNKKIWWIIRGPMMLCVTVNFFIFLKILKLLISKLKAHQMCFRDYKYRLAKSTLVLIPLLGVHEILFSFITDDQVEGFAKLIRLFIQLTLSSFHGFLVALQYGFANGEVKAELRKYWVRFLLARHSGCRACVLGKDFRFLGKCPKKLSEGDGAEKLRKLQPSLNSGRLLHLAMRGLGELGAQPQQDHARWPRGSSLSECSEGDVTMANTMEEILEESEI

[7] = BHK21 cells transiently transfected with GLP-2 receptor and CRE-luciferase, 10 fM to 10 nM, read-out: pEC50 (converted)

## H-HGEGSFSDELATILEALAAADFIAWLIATKITD-NH2 [ZP2264]
[1]
  Sensitivity index Stomach/Co: 0.79
  Stomach-BW, compared to 1559 in %: 87%
[2]
  Colon-BW, compared to 1559 in %: 109.5%
  Preferential stimulation of epithelial growth in the small intestine (summary): preferentially stimulating epithelial growth in the small intestine
  SI-BW, compared to 1559 in %: 125.7%
  Sto-BW, compared to 1559 in %: 87%
  Sensitivity index Si/Colon: 1.15
  Sensitivity index Stomach/Co: 0.79
  Colon: 109 ± 3 %
  SI (% vs. [Gly2]GLP-2: 126 ± 3 %
[2]; (SI/Colon)x/(SI/Colon)[Gly2]GLP-2
  Small intestine-colon sensitivity index: 1.15 ± 0.03
[3]
  Colon-BW, compared to 1559 in %: 109.5%
  Sensitivity index Si/Co: 1.15
  SI-BW, compared to 1559 in %: 125.7%
[4]; [7]
  EC50: 0.00316 nM
[4]; agonism on GLP-2 receptor in BHK-21 cells, read-out: IC 50 (FIG. 5)
  EC50: 0.00355 nM

## H-HGEGSFSDELSTILESLAAADFIAWLIATKITD-NH2 [ZP2267]
[2]
  Colon-BW, compared to 1559 in %: 109.4%
  Organ selectivity (FIG. 8, unselective compounds): unselective for the small intestine, colon or stomach
  SI-BW, compared to 1559 in %: 108.5%
  Sto-BW, compared to 1559 in %: 85.9%
  Sensitivity index Si/Colon: 0.99
  Sensitivity index Stomach/Co: 0.79
  Colon: 109 ± 4%
  SI (% vs. [Gly2]GLP-2: 108 ± 2%
[4]; [7]
  EC50: 0.0135 nM

## H-HGEGSFSDELSTILESLAASDFISWLISTKITD-NH2 [ZP2263]
[4]; [7]
  EC50: 0.0145 nM

## H-HGEGSFSDELATILESLAAADFISWLIATKITD-NH2 [ZP2272]
[1]
  Sensitivity index Stomach/Co: 0.92
  Stomach-BW, compared to 1559 in %: 96%
[2]
  Colon-BW, compared to 1559 in %: 104.7%
  Preferential stimulation of epithelial growth in the small intestine (summary): preferentially stimulating epithelial growth in the small intestine
  SI-BW, compared to 1559 in %: 118.1%
  Sto-BW, compared to 1559 in %: 96%
  Sensitivity index Si/Colon: 1.13
  Sensitivity index Stomach/Co: 0.92
  Colon: 105 ± 6%
  SI (% vs. [Gly2]GLP-2: 118 ± 2%
[3]
  Colon-BW, compared to 1559 in %: 104.7%
  Sensitivity index Si/Co: 1.13
  SI-BW, compared to 1559 in %: 118.1%
[4]; [7]
  EC50: 0.00537 nM

## H-HGEGSFSDELNTILESLAASDFISWLISTKITD-NH2 [ZP2270]
[4]
  EC50: 0.0589 nM

## H-HGEGSFSDELKTILESLAAADFIEWLIQTKITD-NH2 [ZP2269]
[2]
  Colon-BW, compared to 1559 in %: 94.7%
  Organ selectivity (FIG. 8, unselective compounds): unselective for the small intestine, colon or stomach
  SI-BW, compared to 1559 in %: 97.4%
  Sto-BW, compared to 1559 in %: 99.8%
  Sensitivity index Si/Colon: 1.03
  Sensitivity index Stomach/Co: 1.05
  Colon: 95 ± 3%
  SI (% vs. [Gly2]GLP-2: 97 ± 2%
[4]; [7]
  EC50: 0.0912 nM

## O=C(O)[C@@H]1CCCN1 [Pro]
[5]
  HBP for the individual amino acids: 0

## H-HGEGSFSDELETILEELAAEDFIEWLIETKITD-NH2 [ZP2266]
[2]
  Colon-BW, compared to 1559 in %: 100.6%
  Organ selectivity (FIG. 8, unselective compounds): unselective for the small intestine, colon or stomach
  SI-BW, compared to 1559 in %: 95.3%
  Sto-BW, compared to 1559 in %: 93.6%
  Sensitivity index Si/Colon: 0.95
  Sensitivity index Stomach/Co: 0.93
  Colon: 101 ± 2%
  SI (% vs. [Gly2]GLP-2: 95 ± 1%
[4]; [7]
  EC50: 0.558 nM

## NC(=O)CC[C@H](N)C(=O)O [Gln]
[5]
  HBP for the individual amino acids: 3

## N[C@@H](Cc1ccccc1)C(=O)O [Phe]
[5]
  HBP for the individual amino acids: 0

## H-HGEGSFSDELETILEELAAEDFIEWLIETKITD-NH2 [ZP2266]
[6]
  pEC50 (CRE-luciferase reporter, BHK-21 cells transiently transfected with hGLP-2 receptor): 9.25

## H-HGEGSFSDELSTILESLAASDFISWLISTKITD-NH2 [ZP2263]
[6]
  pEC50 (CRE-luciferase reporter, BHK-21 cells transiently transfected with hGLP-2 receptor): 10.8

## H-HGEGSFSDELKTILESLAAADFIEWLIQTKITD-NH2 [ZP2269]
[6]
  pEC50 (CRE-luciferase reporter, BHK-21 cells transiently transfected with hGLP-2 receptor): 10

## H-HGEGSFSDELNTILESLAASDFISWLISTKITD-NH2 [ZP2270]
[6]
  pEC50 (CRE-luciferase reporter, BHK-21 cells transiently transfected with hGLP-2 receptor): 10.2

## H-HGEGSFSDELATILESLAAADFISWLIATKITD-NH2 [ZP2272]
[6]
  pEC50 (CRE-luciferase reporter, BHK-21 cells transiently transfected with hGLP-2 receptor): 11.3

## H-HGEGSFSDELSTILESLAAADFIAWLIATKITD-NH2 [ZP2267]
[6]
  pEC50 (CRE-luciferase reporter, BHK-21 cells transiently transfected with hGLP-2 receptor): 10.9

## H-HGEGSFSDELATILEALAAADFIAWLIATKITD-NH2 [ZP2264]
[6]
  pEC50 (CRE-luciferase reporter, BHK-21 cells transiently transfected with hGLP-2 receptor): 11.5

## H-HGEGSFSDELATILEALAASDFISWLISTKITD-NH2 [ZP2268]
[6]
  pEC50 (CRE-luciferase reporter, BHK-21 cells transiently transfected with hGLP-2 receptor): 11.2

## H-HGEGSFSSELSTILDALAARDFIAWLIATKITDK-OH [ZP2242]
[6]
  pEC50 (CRE-luciferase reporter, BHK-21 cells transiently transfected with hGLP-2 receptor): 12.4
